{"source": "patent US20110206623A1", "about": "“NOVEL DIPOLAR IONIC COMPOUNDS COMPRISING FORMULATIONS AND THE USE THEREOF” (EVONIK GOLDSCHMIDT GMBH, priority 2007, published 2011)", "key": {"[1]": {"test_system": "skin model (reconstructed human epidermis) damaged with SDS", "experiment": "LDH release after damaging the cells with SDS, O/W cream", "type": "cell-based", "protocol": "(§1) In order to be able to characterize the skin care properties of the compounds 2.1 to 2.8, various in vitro tests were carried out on skin models (reconstructed human epidermis, company: SkinEthic).\nThe LDH concentration was determined with a commercially available test kit (LDH test kit, Roche Diagnostics, Mannheim, Germany).\nSodium dodecyl sulphate (SDS) is known for attacking the cell membrane and for resulting in increased LDH release. The experiment described below should investigate to what extent compound 2.1 can protect the cells after damaging with SDS.\nThe skin model was damaged with SDS for 40 min. Subsequently, the test formulation, an O/W cream with 1 or 4% of compound 2.1, was applied. The LDH release was measured 24 h and 48 h after application of the test formulation."}, "IL-1α": {"test_system": "IL-1α", "experiment": "Anti-inflammatory action of an O/W cream with compound 2.1 (IL-1α after SDS damage)", "type": "cell-based, human", "details": "O/W cream with 1% and 4% of compound 2.1 applied after SDS damage", "protocol": "as §1\nIL-1α is a […] which plays a central role in inflammatory reactions in the body. Sodium lauryl sulphate (SDS) is a skin-irritating surfactant which can give rise to irritant contact dermatitis in man, is used as model irritant in proband studies and, inter alia, induces the release of IL-1α. The IL-1α concentration was determined with a commercially available test kit (human IL-1α immunoassay, R&D Systems GmbH, Wiesbaden, Germany).\nIt should be investigated whether the anti-inflammatory effect of the short-chain zwitterionic compounds also appears when used from a cosmetic formulation. For this, skin models were damaged with SDS. Subsequently, the test formulation with 1% and 4% of compound 2.1 was applied. The IL-1α concentration was determined 24 and 48 h after application."}, "[2]": {"test_system": "skin model (reconstructed human epidermis) damaged with SDS", "experiment": "XTT test with an O/W cream with compound 2.1 after SDS damage", "type": "cell-based", "details": "O/W cream with compound 2.1 applied after 0.25% SDS for 40 min; 24 h incubation", "protocol": "as §1\nThe XTT test is based on the ability of the cells to reduce the dye XTT, which can be detected photometrically. This reaction is catalyzed by mitochondrial succinate dehydrogenase and requires NAD(P)H, which can only be formed by metabolically active cells. To sum up, the XTT test describes the viability of the cells.\nThe XTT test was carried out with a commercially available test kit and took place according to the manufacturer's instructions (XTT Test, Roche Diagnostics, Mannheim, Germany).\nThe skin model was first damaged with 0.25% SDS for 40 min. Subsequently, the test formulations were applied. After incubating for a time of 24 h, the viability of the cells was determined using the XTT test.\nTest formulation: see Example 3.2."}, "[3]": {"experiment": "Water retention capacity on an IMS film", "details": "5.0% in test formulation 3.7; 4 hours at 21-22° C. and 72% R.H.; in comparison with the vehicle", "source_text": "The determination of the water retention capacity of active substances using the IMS film represents a simple screening test by which the moisturizing properties of active substances can be very satisfactorily investigated. The measurement is based on the following principle: The IMS film is a membrane which is covered with peptides, lipids and polymers and represents a greatly simplified skin model. The active substance interacts out of the formulation with the film. Combining with water takes place and thus the evaporation of the water is prevented or made more difficult.\nImplementation: • 1. The weight of the IMS membrane is determined (W1). • 2. The test formulation is applied, the film is again weighed (W2) and the film is subsequently incubated at 21-22° C. and 72% R.H. for 4 hours. • 3. After the 4 hours have passed, the film is again weighed (W3). • 4. The water retention capacity of the formulation (WR) is calculated as follows: […]"}, "[4]": {"test_system": "skin moisture (stratum corneum), forearms of probands", "experiment": "In vivo moisturizer properties, corneometer, 2 hours after application", "parameters": "species or system human", "protocol": "The skin moisture is determined in normal fashion using a corneometer.\nWith the corneometer principle, the skin moisture of the “outer layer” of the epidermis (stratum corneum) is determined by means of a capacity measurement. This principle is based on the fact that the dielectric constants of water and other substances differ. An appropriately shaped measuring capacitor reacts with different changes in capacity on the samples introduced into its sensing volume, which changes in capacity are recorded and evaluated fully automatically by the device. The active probe coated with special glass is pressed against the place on the skin to be measured and, after 1 second, the value measured by the corneometer, thus the degree of moisture on the skin surface, appears on the display\nFor the experiments described here, use is made of a corneometer CM 825 from Courage & Khazaka. The skin moisture was measured before and 2 hours after application of the test formulations. For this, 4 test panels were each time highlighted on the forearms of 14 probands, on which the different test formulations were applied. Before each measurement, the probands had to spend at least 15 min in a climate-controlled chamber (21-22° C., 55% R.H.).\nThe difference in the corneometer values before and after application of the test formulations was calculated. […]"}, "[5]": {"test_system": "skin moisture, inner side of a forearm of probands", "experiment": "Long-term moisturizing effect, corneometer, two-week study", "type": "in vivo, human", "details": "2% in test formulation 3.9, twice daily for 2 weeks; compared with vehicle; 12 probands", "protocol": "In order to investigate the long-term effect of the moisturizing properties of compound 2.1, a study lasting two weeks was carried out with 12 probands. The probands received 2 formulations, one with 2% of compound 2.1 and one without active substance. They had to apply each of these formulations on the inner side of a forearm twice daily. The moisture content was measured before beginning to use and also after 2 weeks.\nThe moisture content was determined using a corneometer CM 825 (Courage & Khazaka). Before each measurement, the probands had to stay in a climate-controlled chamber (21-22° C., 55% R.H.) for at least 15 min. The difference in the corneometer units with respect to the starting value was calculated each time (ΔCU)."}, "[6]": {"test_system": "skin roughness, inner side of a forearm of probands", "experiment": "Skin roughness by tape stripping and Bradford test", "type": "in vivo, human", "details": "2% formulation twice daily", "source_text": "The skin roughness can be quantified in a simple way by means of tape stripping. The rougher the skin surface, e.g. because the skin lipid barrier is damaged, the weaker the binding of the skin cells. In some cases, with very rough skin, this can be seen with the naked eye. The outermost corneocytes are removed by tape stripping. In this connection, the more corneocytes stuck to the tape, the rougher the skin. The corneocytes are subsequently determined quantitatively using a commercially available Bradford test. This is based on the following principle: the triphenylmethane dye Coomassie Brilliant Blue G-250 (CBBG) forms complexes in acid solution both with the cationic and the nonpolar hydrophobic side chains of the proteins. […] Since the extinction coefficient of the dye/protein complex is in addition very much higher than that of the free dye, the increase in the absorption at 595 nm through the formation of the complex can be measured photometrically with high sensitivity against the free dye reagent and is a measure of the protein concentration of the solution.\nThe study was carried out with 12 probands who received two test formulations, one with 2% compound 2.1 and one without. […] Tape strips were taken and analyzed before the beginning of the application and also after 2 weeks and after 4 weeks. […]"}}, "data": [{"compound": "C[N+](C)(CCCNC=O)CC(=O)[O-]", "note": "[Compound 2.1]", "values": [{"measurement": "Effectiveness on LDH release with 4% compared with 1%", "setting": "[1]; O/W cream with 4% vs 1% of compound 2.1 after SDS damage", "result": "no clear increase in the effectiveness"}, {"measurement": "Reduction of the SDS-induced increase in LDH release (total LDH after 24 and 48 h)", "setting": "[1]; O/W cream with compound 2.1 applied after 40 min SDS damage, compared with vehicle", "result": "clearly intensified"}, {"measurement": "SDS-induced increase in IL-1α (overall concentration after 24 and 48 h)", "setting": "IL-1α", "result": "more strongly reduced in a concentration-dependent fashion"}, {"measurement": "Viability of the skin cells (XTT) after damaging with SDS", "setting": "[2]", "result": "more than redoubled"}, {"measurement": "Water retention capacity (WR)", "setting": "[3]", "result": "particularly strongly pronounced"}, {"measurement": "Effectiveness on skin moisture with increasing concentration of use", "setting": "[4]; 1.0% vs 4.0% in test formulation 3.8", "result": "clearly increased with increasing concentration of use"}, {"measurement": "Skin moisture, increase in corneometer units (ΔCU)", "setting": "[4]; 1.0/4.0% in test formulation 3.8, 14 probands", "result": "very clearly increased"}, {"measurement": "Moisture content (ΔCU) after 2 weeks", "setting": "[5]", "result": "further enhanced"}, {"measurement": "Skin roughness (amount of protein on tape strips, based on the vehicle), two weeks", "setting": "[6]; after using for two weeks, compared with the vehicle", "result": "clear reduction"}, {"measurement": "Skin roughness (amount of protein on tape strips, based on the vehicle), further use", "setting": "[6]; further use (after 4 weeks)", "result": "even more pronounced"}]}]}
